Patent US6737383B1, “Herbicidal oxadiazolidines” (priority 1999, dated 2004)

Legend:
rice = assay: Test B flood test rice; format: in vivo, Oryza sativa
In short: (§1)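 Each value is a visual injury score relative to controls, with 10 meaning complete control and 0 no effect. Evaluation took place twelve to sixteen days after the 2-leaf-stage plants were treated and kept in the greenhouse.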

duck salad = assay: Test B flood test duck salad; format: in vivo, Heteranthera limosa
In short: as §1

winter barley = assay: Test E winter barley; format: in vivo, Hordeum vulgare; details: Preemergence; for Barley (winter) plant response rating (0 to 100 scale): Rate 250 g/ha
wild oat = assay: Test E wild oat; format: in vivo, Avena fatua; details: Preemergence; for Wild oat plant response rating (0 to 100 scale): Rate 250 g/ha
wheat = assay: Test B pre/postemergence wheat; format: in vivo, Triticum aestivum
In short: (§2)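 Test chemicals in a non-phytotoxic solvent mixture with surfactant were sprayed preemergence onto planted seeds and postemergence onto plants 2 to 18 cm tall (1- to 4-leaf stage). After twelve to sixteen days in a greenhouse, injury was visually rated against untreated controls from 0 (no effect) to 10 (complete control).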

green foxtail = assay: Test E green foxtail; format: in vivo, Setaria viridis; details: Preemergence; for Green foxtail plant response rating (0 to 100 scale): Rate 250 g/ha
blackgrass = assay: Test E blackgrass; format: in vivo, Alopecurus myosuroides; details: Preemergence; for Blackgrass plant response rating (0 to 100 scale): Rate 250 g/ha
Italian ryegrass = assay: Test E Italian ryegrass; format: in vivo, Lolium multiflorum; details: Preemergence; for I. Ryegrass plant response rating (0 to 100 scale): Rate 250 g/ha
bedstraw = assay: Test B pre/postemergence bedstraw; format: in vivo, Galium aparine; details: for Bedstraw plant response rating (0 to 10 scale): 0 is no effect
In short: as §2

winter wheat [1] = assay: Test E winter wheat; format: in vivo, Triticum aestivum; details: Preemergence; for Wheat (winter) plant response rating (0 to 100 scale): Rate 250 g/ha
winter wheat [2] = assay: Test E winter wheat; format: in vivo, Triticum aestivum; details: Postemergence; for Wheat (winter) plant response rating: Rate 250 g/ha
In short: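 Postemergence: spray at 1–4 leaf stage, soil 60:40 sandy loam:potting mix; solvent + surfactant formulation; greenhouse 21–28 d; visual injury vs untreated controls.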

[3] = Rate 62 g/ha, headed Pre-emergence (flood test species), scale 0 to 10 (0 no effect, 10 complete control)
[4] = Rate 125 g/ha, Pre-emergence, flood test species, scale 0 to 10 where 0 is no effect and 10 is complete control
[5] = Rate 250 g/ha, Pre-emergence, flood-test species, scale 0 to 10, 0 is no effect, 10 is complete control
[6] = Rate 500 g/ha, headed Pre-emergence (flood test species), scale 0 to 10 (0 no effect, 10 complete control)
[7] = Rate 500 g/ha, 0 to 100 scale where 0 is no effect and 100 is complete control
[8] = Rate 1000 g/ha, 0 to 100 scale where 0 is no effect and 100 is complete control
[9] = Preemergence, Rate 62 g/ha, scale of 0 to 10 where 0 is no effect and 10 is complete control
[10] = Preemergence, Rate 250 g/ha, scale 0 to 10, 0 is no effect, 10 is complete control
[11] = Preemergence, Rate 500 g/ha, scale 0 to 10 (0 no effect, 10 complete control)
[12] = Rate 250 g/ha, Postemergence, scale 0 to 10, 0 is no effect, 10 is complete control
[13] = Rate 500 g/ha, Postemergence, scale 0 to 10
[14] = Preemergence, Rate 125 g/ha, 10 is complete control
[15] = Rate 62 g/ha, Postemergence, scale of 0 to 10 where 0 is no effect and 10 is complete control
[16] = Rate 1000 g/ha, 0 to 100 scale, 0 is no effect and 100 is complete control
[17] = 0 to 100 scale where 0 is no effect and 100 is complete control
[18] = Preemergence, Rate 500 g/ha, scale of 0 to 10 where 0 is no effect and 10 is complete control
[19] = Rate 125 g/ha, Postemergence, scale 0 to 10
[20] = Rate 500 g/ha, 0 to 100 scale, 0 is no effect, 100 is complete control
[21] = Rate 500 g/ha, Pre-emergence, flood test species, scale 0 to 10 (0 no effect, 10 complete control)
[22] = Rate 125 g/ha, 0 to 100 scale (0 no effect, 100 complete control)
[23] = Preemergence, Rate 250 g/ha, scale of 0 to 10 where 0 is no effect and 10 is complete control
[24] = Rate 125 g/ha, Preemergence, scale of 0 to 10 where 0 is no effect and 10 is complete control
[25] = Rate 1000 g/ha, 0 to 100 scale, 0 no effect, 100 complete control
[26] = Rate 500 g/ha, Postemergence, scale 0 to 10, 0 no effect, 10 complete control

CC(C)N(Cc1ccccc1)C(=O)n1oc(=O)n(C(C)C)c1=O [Compound 165]
60: Plant response rating, Wild oat (wild oat; [7]) | Plant response rating, Blackgrass (blackgrass; [7]) | I. Ryegrass plant response rating (0 to 100 scale) (Italian ryegrass)
1: Bedstraw plant response rating (0 to 10 scale) (bedstraw; [14])
0: Rice plant response rating (rice; [3]) | Rice plant response rating (rice; [4]) | Rice plant response rating (rice; [5]) | Plant response rating, Rice (rice; [6]) | Ducksalad plant response rating (duck salad; [3]) | Ducksalad plant response rating (duck salad; [4]) | Ducksalad plant response rating (duck salad; [5]) | Plant response rating, Ducksalad (duck salad; [6]) | Wheat plant response rating (wheat; [9]) | Wheat plant response rating (0 to 10 scale) (wheat; Preemergence, Rate 125 g/ha, 0 is no effect, 10 is complete control) | Wheat plant response rating (wheat; [10]) | Bedstraw plant response rating (bedstraw; Postemergence, Rate 125 g/ha, scale of 0 to 10 where 0 is no effect and 10 is complete control) | Bedstraw plant response rating (bedstraw; [9]) | Bedstraw plant response rating (bedstraw; [15])
50: Plant response rating, Barley (winter) (winter barley; [8]) | Green foxtail plant response rating (0 to 100 scale) (green foxtail) | Plant response rating, Wheat (winter) (winter wheat [1]; [7])
100: Plant response rating, Blackgrass (blackgrass; [8])
40: Blackgrass plant response rating (0 to 100 scale) (blackgrass) | Wheat (winter) plant response rating (0 to 100 scale) (winter wheat [1]) | Wheat (winter) plant response rating (winter wheat [2]; [17])
2: Wheat plant response rating (wheat; [11]) | Plant response rating, Wheat (wheat; [12])
3: Wheat plant response rating (wheat; [13]) | Bedstraw plant response rating (bedstraw; [10])
70: Plant response rating, Wild oat (wild oat; [8]) | Plant response rating, I. Ryegrass (Italian ryegrass; [8]) | Plant response rating, Wheat (winter) (winter wheat [1]; [8])
55: Plant response rating, Barley (winter) (winter barley; [7]) | Wild oat plant response rating (0 to 100 scale) (wild oat) | Plant response rating, Green foxtail (green foxtail; [7]) | Plant response rating, I. Ryegrass (Italian ryegrass; [7])
4: Bedstraw plant response rating (bedstraw; [11]) | Plant response rating, Bedstraw (bedstraw; [12])
65: Plant response rating, Green foxtail (green foxtail; [8]) | Plant response rating, Wheat (winter) (winter wheat [2]; Rate 500 g/ha, 0 to 100 scale, 0 no effect, 100 complete control)
85: Plant response rating, Wheat (winter) (winter wheat [2]; [16])
20: Barley (winter) plant response rating (0 to 100 scale) (winter barley)
8: Bedstraw plant response rating (bedstraw; [13])

CC(C)N(C(=O)n1oc(=O)n(-c2ccc(OC(F)(F)F)cc2)c1=O)c1ccc(F)cc1 [Compound 202]
0: Rice plant response rating (rice; [3]) | Rice plant response rating (rice; [4]) | Rice plant response rating (rice; [5]) | Plant response rating, Rice (rice; [6]) | Ducksalad plant response rating (duck salad; [3]) | Ducksalad plant response rating (duck salad; [4]) | Ducksalad plant response rating (duck salad; [5]) | Plant response rating, Ducksalad (duck salad; [6]) | Wheat plant response rating (wheat; [9]) | Wheat plant response rating (wheat; [10]) | Wheat plant response rating (wheat; [15]) | Wheat plant response rating (wheat; [19]) | Plant response rating (0 to 10; 0 is no effect, 10 is complete control), Wheat (wheat; Rate 250 g/ha, Postemergence) | Bedstraw plant response rating (bedstraw; [9]) | Bedstraw plant response rating (0 to 10 scale) (bedstraw; [14])
80: Plant response rating, Wild oat (wild oat; [8])
6: Bedstraw plant response rating (bedstraw; [10])
100: Plant response rating, Green foxtail (green foxtail; [8])
85: Plant response rating, Green foxtail (green foxtail; [7])
60: Plant response rating, Wild oat (wild oat; [7]) | Plant response rating, I. Ryegrass (Italian ryegrass; [7]) | Plant response rating, I. Ryegrass (Italian ryegrass; [8]) | Plant response rating, Wheat (winter) (winter wheat [2]; [16])
4: Plant response rating (0 to 10; 0 is no effect, 10 is complete control), Bedstraw (bedstraw; Rate 250 g/ha, Postemergence) | Bedstraw plant response rating (bedstraw; [13])
40: Plant response rating, Barley (winter) (winter barley; [7]) | Plant response rating, Wheat (winter) (winter wheat [1]; [7])
30: Blackgrass plant response rating (0 to 100 scale) (blackgrass) | Plant response rating, Blackgrass (blackgrass; [8]) | I. Ryegrass plant response rating (0 to 100 scale) (Italian ryegrass)
50: Wild oat plant response rating (0 to 100 scale) (wild oat) | Plant response rating, Blackgrass (blackgrass; [7]) | Wheat (winter) plant response rating (0 to 100 scale) (winter wheat [1])
1: Bedstraw plant response rating (bedstraw; [15])
70: Plant response rating, Barley (winter) (winter barley; [8]) | Green foxtail plant response rating (0 to 100 scale) (green foxtail) | Plant response rating, Wheat (winter) (winter wheat [1]; [8])
2: Plant response rating, Wheat (wheat; [18]) | Plant response rating, Bedstraw (bedstraw; [18]) | Bedstraw plant response rating (bedstraw; [19])
55: Plant response rating, Wheat (winter) (winter wheat [2]; [20])
20: Barley (winter) plant response rating (0 to 100 scale) (winter barley)

CC(=O)OCCCCn1c(=O)on(C(=O)N(c2ccc(F)cc2)C(C)C)c1=O [Compound 211]
7: Bedstraw plant response rating (bedstraw; [19])
20: Barley (winter) plant response rating (0 to 100 scale) (winter barley) | Plant response rating, Wild oat (wild oat; [22]) | Plant response rating, Green foxtail (green foxtail; [7]) | Plant response rating, Wheat (winter) (winter wheat [2]; Rate 125 g/ha, 0 to 100 scale, 0 is no effect, 100 is complete control)
0: Rice plant response rating (rice; [3]) | Rice plant response rating (rice; [4]) | Rice plant response rating (rice; [5]) | Rice plant response rating (rice; [21]) | Ducksalad plant response rating (duck salad; [3]) | Ducksalad plant response rating (duck salad; [4]) | Ducksalad plant response rating (duck salad; [5]) | Ducksalad plant response rating (duck salad; [21]) | Wheat plant response rating (wheat; [9]) | Wheat plant response rating (wheat; [23]) | Wheat plant response rating (wheat; [15]) | Wheat plant response rating (wheat; [19]) | Wheat plant response rating (wheat; [24]) | Plant response rating (0 to 10; 0 is no effect, 10 is complete control), Wheat (wheat; Rate 250 g/ha, Postemergence) | Plant response rating, Green foxtail (green foxtail; [22]) | Plant response rating, Blackgrass (blackgrass; [22]) | Blackgrass plant response rating (0 to 100 scale) (blackgrass) | I. Ryegrass plant response rating (0 to 100 scale) (Italian ryegrass) | Bedstraw plant response rating (bedstraw; [9]) | Bedstraw plant response rating (bedstraw; [23]) | Bedstraw plant response rating (bedstraw; [24])
30: Plant response rating, Wheat (winter) (winter wheat [1]; [7])
35: Wheat (winter) plant response rating (0 to 100 scale) (winter wheat [1])
8: Bedstraw plant response rating (bedstraw; [13])
4: Bedstraw plant response rating (bedstraw; [15])
10: Plant response rating, Barley (winter) (winter barley; [22]) | Plant response rating, Barley (winter) (winter barley; [7]) | Green foxtail plant response rating (0 to 100 scale) (green foxtail) | Plant response rating, I. Ryegrass (Italian ryegrass; [7]) | Plant response rating, Bedstraw (bedstraw; [18])
50: Plant response rating, Blackgrass (blackgrass; [7]) | Plant response rating, Wheat (winter) (winter wheat [1]; [22])
5: Plant response rating, Wheat (wheat; [18])
40: Plant response rating, Wild oat (wild oat; [7]) | Plant response rating, Wheat (winter) (winter wheat [2]; [20])

Cc1ccccc1N(C(=O)n1oc(=O)n(-c2ccccc2C)c1=O)C(C)C [Compound 236]
30: Plant response rating, Wild oat (wild oat; [7])
10: Plant response rating, Wheat (winter) (winter wheat [1]; [7]) | Plant response rating, Wheat (winter) (winter wheat [2]; [8])
100: Plant response rating, Green foxtail (green foxtail; [7]) | Plant response rating, Green foxtail (green foxtail; [25])
60: Blackgrass plant response rating (0 to 100 scale) (blackgrass) | Plant response rating, Blackgrass (blackgrass; [7])
40: Plant response rating, Barley (winter) (winter barley; [7]) | Plant response rating, I. Ryegrass (Italian ryegrass; [7])
0: Rice plant response rating (rice; [3]) | Rice plant response rating (rice; [4]) | Rice plant response rating (rice; [5]) | Rice plant response rating (rice; [21]) | Ducksalad plant response rating (duck salad; [3]) | Ducksalad plant response rating (duck salad; [4]) | Ducksalad plant response rating (duck salad; [5]) | Ducksalad plant response rating (duck salad; [21]) | Wheat plant response rating (wheat; [9]) | Wheat plant response rating (wheat; [23]) | Plant response rating, Wheat (wheat; [18]) | Wheat plant response rating (wheat; [15]) | Wheat plant response rating (wheat; [19]) | Wheat plant response rating (wheat; [24]) | Plant response rating (0 to 10; 0 is no effect, 10 is complete control), Wheat (wheat; Rate 250 g/ha, Postemergence) | Wheat plant response rating (wheat; [26]) | Bedstraw plant response rating (bedstraw; [9]) | Bedstraw plant response rating (bedstraw; [23]) | Plant response rating, Bedstraw (bedstraw; [18]) | Bedstraw plant response rating (bedstraw; [15]) | Bedstraw plant response rating (bedstraw; [19]) | Bedstraw plant response rating (bedstraw; [24]) | Plant response rating (0 to 10; 0 is no effect, 10 is complete control), Bedstraw (bedstraw; Rate 250 g/ha, Postemergence) | Wheat (winter) plant response rating (0 to 100 scale) (winter wheat [1]) | Wheat (winter) plant response rating (winter wheat [2]; [17]) | Plant response rating, Wheat (winter) (winter wheat [2]; [20])
20: Barley (winter) plant response rating (0 to 100 scale) (winter barley) | Wild oat plant response rating (0 to 100 scale) (wild oat) | I. Ryegrass plant response rating (0 to 100 scale) (Italian ryegrass) | Plant response rating, Wheat (winter) (winter wheat [1]; [25])
55: Plant response rating, I. Ryegrass (Italian ryegrass; [25])
50: Plant response rating, Barley (winter) (winter barley; [25]) | Plant response rating, Wild oat (wild oat; [25])
70: Plant response rating, Blackgrass (blackgrass; [25])
85: Green foxtail plant response rating (0 to 100 scale) (green foxtail)
4: Bedstraw plant response rating (bedstraw; [26])
